Experimental data published in patent publication US20210207064A1, “COMPOUND FOR RESTORING CONTAMINATED SOIL OR CONTAMINATED WATER” (FNG RESEARCH CO., LTD., priority 2018, published 2021).

What was measured:
[1] = Heavy metal removal ability test in contaminated soil (ICP-MS), cadmium; settings: for Cadmium (Cd) Adsorption amount: contaminated soil; for Cadmium (Cd) Adsorption rate: relative to EDTA control
Procedure: (§1) (1) Preparation of Soil Contaminated with Heavy Metal
(§2) After collecting and pulverizing uncontaminated soil, fine particles obtained by using a mesh were mixed with the aqueous heavy metal solution to prepare soil samples contaminated with heavy metals.
(§3) Each 3 ml of the prepared aqueous solution was added to a soil sample contaminated with heavy metals and mixed for 5 minutes.
(§4) 50 ml of distilled water was added to the contaminated soil mixed with the aqueous solution for restoring soil, stirred for 20 minutes, and settled for 1 hour, and a supernatant was prepared as a sample solution.
(§5) The prepared sample solution was analyzed for the heavy metal component using an Inductively Coupled Plasma Mass Spectrometer (ICP-MS) (Xseries™ 2, Thermo Fisher Scientific, UK).
(§6) Adsorption rate of heavy metals (%)=(Adsorption amount of Embodiment/Adsorption amount of Control)×100 Equation 1

[2] = Heavy metal removal ability test in contaminated soil (ICP-MS), nickel; settings: for Nickel (Ni) Adsorption amount: contaminated soil; for Nickel (Ni) Adsorption rate: relative to EDTA control
Procedure: as §1, §2, §3, §4, §5, §6

[3] = Heavy metal removal ability test in contaminated soil around a factory (WAK-Me test kit); settings: 1.0 wt % aqueous solution, colour comparison test kit
Procedure: The contaminated soil around the factory in the industrial complex was collected, pulverized, and meshed to prepare fine particles of soil samples.
Each 3 ml of aqueous solutions for restoring soil was added to soil samples and mixed for 5 minutes.

[4] = Heavy metal removal ability test in contaminated soil (ICP-MS), arsenic; settings: for Arsenic (As) Adsorption amount: contaminated soil; for Arsenic (As) Adsorption rate: relative to EDTA control
Procedure: as §1, §2, §3, §4, §5, §6

[5] = tested on: human skin; test: Skin irritation test of active ingredient (patch method, CTFA guidelines); format: in vivo; settings: 24 h patch; for Test result (number of subject) (+) / Test result (number of subject) (++) / Test result (number of subject) (±) / Test result (number of subject) (−): 20 people; for Test result (number of subject) (+): (+) apparent reddening; for Test result (number of subject) (++): (++) more reddened and swollen; for Test result (number of subject) (±): (±) slightly reddish; for Test result (number of subject) (−): (−) no erythema
Procedure: A filter paper disk was placed in an 8 mm diameter, 10 panels of pin chamber.
After 24 hours, the pin chamber was removed, and skin conditions were visually observed. The degree and grade for skin irritation were calculated according to the following Equation 2, and the results are shown in Table 4 below.
[Criteria for Skin Irritation]
(−): No erythema or particularly no symptoms; (±): slightly reddish than the periphery; (+): Apparent reddening than periphery; (++): More reddened and swollen than periphery.
[Grade for Skin Irritation]
Degree of irritation 0-0.1: Grade I (unstimulated);
Degree of irritation 0.11-0.3: Grade II (weakly stimulated);
Degree of irritation 0.31-0.5: Grade III (moderately stimulated);
Degree of irritation 0.51 or more: Grade IV (strongly stimulated)

[6] = Formaldehyde (formalin) removing ability test (GC); settings: 2.0% formaldehyde solution, 3 molar equivalents of compound, room temperature; for Formaldehyde GC Area, 30 min: after 30 min; for Formaldehyde GC Area, 180 min: after 180 min; for Formaldehyde GC Area, Initial: initial state

Row | Structure (SMILES) | Cadmium (Cd) Adsorption amount ([1]; content 0.5% aqueous solution) [ppm] | Nickel (Ni) Adsorption amount ([2]; content 0.5% aqueous solution) [ppm] | Total amount (Cu, Zn, Mn, Ni, Cd) [3] [ppm] | Arsenic (As) Adsorption amount ([4]; content 0.5% aqueous solution) [ppm] | Test result (number of subject) (+) ([5]; content 0.1 wt %) | Test result (number of subject) (++) ([5]; content 0.1 wt %) | Test result (number of subject) (±) ([5]; content 0.1 wt %) | Test result (number of subject) (−) ([5]; content 0.1 wt %) | Degree of irritation ([5]; content 0.1 wt %) | Grade for skin irritation ([5]; content 0.1 wt %) | Test result (number of subject) (+) ([5]; content 0.5 wt %) | Test result (number of subject) (++) ([5]; content 0.5 wt %) | Test result (number of subject) (±) ([5]; content 0.5 wt %) | Test result (number of subject) (−) ([5]; content 0.5 wt %) | Degree of irritation ([5]; content 0.5 wt %) | Grade for skin irritation ([5]; content 0.5 wt %) | Test result (number of subject) (+) ([5]; content 1.0 wt %) | Test result (number of subject) (++) ([5]; content 1.0 wt %) | Test result (number of subject) (±) ([5]; content 1.0 wt %) | Test result (number of subject) (−) ([5]; content 1.0 wt %) | also measured
1 | O=C(O)CN(CCN(CC(=O)O)CC(=O)O)CC(=O)O [Control (EDTA), ethylenediaminetetraacetic acid, reference compound] | 41 | 49 | 2.0 | 25 | – | – | – | – | – | – | – | – | – | – | – | – | – | – | – | – | –
2 | C1CNCCNCCNCCN1 [Cyclen, 1,4,7,10-tetraazacyclododecane] | 69 | 91 | ≤5 | 42 | 0 | 0 | 0 | 20 | 0 | I (Degree of irritation 0-0.1: Grade I (unstimulated)) | 0 | 0 | 0 | 20 | 0 | I (Degree of irritation 0-0.1: Grade I (unstimulated)) | 1 | 0 | 1 | 18 | Degree of irritation ([5]; content 1.0 wt %): 0.15; Grade for skin irritation ([5]; content 1.0 wt %): II (Degree of irritation 0.11-0.3: Grade II (weakly stimulated)); Cadmium (Cd) Adsorption rate ([1]; content 0.5%): 168%; Cadmium (Cd) Adsorption amount ([1]; content 1.0% aqueous solution): 74 ppm; Cadmium (Cd) Adsorption rate ([1]; content 1.0%): 180%; Cadmium (Cd) Adsorption amount ([1]; content 2.0% aqueous solution): 81 ppm; Cadmium (Cd) Adsorption rate ([1]; content 2.0%): 198%; Nickel (Ni) Adsorption rate ([2]; content 0.5%): 186%; Nickel (Ni) Adsorption amount ([2]; content 1.0% aqueous solution): 93 ppm; Nickel (Ni) Adsorption rate ([2]; content 1.0%): 190%; Nickel (Ni) Adsorption amount ([2]; content 2.0% aqueous solution): 98 ppm; Nickel (Ni) Adsorption rate ([2]; content 2.0%): 200%; Formaldehyde GC Area, 30 min [6]: 0.181 mAU*min; Formaldehyde GC Area, 180 min [6]: 0 mAU*min; Formaldehyde GC Area, Initial [6]: 0.305 mAU*min; Arsenic (As) Adsorption rate ([4]; content 0.5%): 168%; Arsenic (As) Adsorption amount ([4]; content 1.0% aqueous solution): 49 ppm; Arsenic (As) Adsorption rate ([4]; content 1.0%): 196%; Arsenic (As) Adsorption amount ([4]; content 2.0% aqueous solution): 51 ppm; Arsenic (As) Adsorption rate ([4]; content 2.0%): 204%
3 | O=C(O)CN(CCN(CCN(CC(=O)O)CC(=O)O)CC(=O)O)CCN(CC(=O)O)CC(=O)O [Embodiment 1, 3,6,9,12-tetrakis(carboxymethyl)-3,6,9,12-tetraazatetradecanedioic Acid] | 74 | 91 | ≤5 | 48 | 0 | 0 | 0 | 20 | 0 | I (Degree of irritation 0-0.1: Grade I (unstimulated)) | 0 | 0 | 1 | 19 | 0.05 | I (Degree of irritation 0-0.1: Grade I (unstimulated)) | 0 | 0 | 4 | 16 | Degree of irritation ([5]; content 1.0 wt %): 0.20; Grade for skin irritation ([5]; content 1.0 wt %): II (Degree of irritation 0.11-0.3: Grade II (weakly stimulated)); Cadmium (Cd) Adsorption rate ([1]; content 0.5%): 180%; Cadmium (Cd) Adsorption amount ([1]; content 1.0% aqueous solution): 79 ppm; Cadmium (Cd) Adsorption rate ([1]; content 1.0%): 193%; Cadmium (Cd) Adsorption amount ([1]; content 2.0% aqueous solution): 84 ppm; Cadmium (Cd) Adsorption rate ([1]; content 2.0%): 205%; Nickel (Ni) Adsorption rate ([2]; content 0.5%): 186%; Nickel (Ni) Adsorption amount ([2]; content 1.0% aqueous solution): 101 ppm; Nickel (Ni) Adsorption rate ([2]; content 1.0%): 206%; Nickel (Ni) Adsorption amount ([2]; content 2.0% aqueous solution): 112 ppm; Nickel (Ni) Adsorption rate ([2]; content 2.0%): 229%; Formaldehyde GC Area, 30 min [6]: 0.170 mAU*min; Formaldehyde GC Area, 180 min [6]: 0 mAU*min; Formaldehyde GC Area, Initial [6]: 0.305 mAU*min; Arsenic (As) Adsorption rate ([4]; content 0.5%): 192%; Arsenic (As) Adsorption amount ([4]; content 1.0% aqueous solution): 50 ppm; Arsenic (As) Adsorption rate ([4]; content 1.0%): 200%; Arsenic (As) Adsorption amount ([4]; content 2.0% aqueous solution): 53 ppm; Arsenic (As) Adsorption rate ([4]; content 2.0%): 212%
4 | O=C(O)c1ccc(N(CCN(CCN(c2ccc(C(=O)O)cc2)c2ccc(C(=O)O)cc2)c2ccc(C(=O)O)cc2)CCN(c2ccc(C(=O)O)cc2)c2ccc(C(=O)O)cc2)cc1 [Embodiment 2, 4,4′,4″,4′″-(((ethane-1,2-diylbis((4-carboxyphenyl)azanediyl))bis(ethane-2,1-diyl))bis(azanetriyl))tetrabenzoic Acid] | 75 | 94 | ≤5 | 48 | 0 | 0 | 0 | 20 | 0 | I (Degree of irritation 0-0.1: Grade I (unstimulated)) | 0 | 0 | 0 | 20 | 0 | I (Degree of irritation 0-0.1: Grade I (unstimulated)) | 0 | 0 | 1 | 19 | Degree of irritation ([5]; content 1.0 wt %): 0.05; Grade for skin irritation ([5]; content 1.0 wt %): I (Degree of irritation 0-0.1: Grade I (unstimulated)); Cadmium (Cd) Adsorption rate ([1]; content 0.5%): 183%; Cadmium (Cd) Adsorption amount ([1]; content 1.0% aqueous solution): 86 ppm; Cadmium (Cd) Adsorption rate ([1]; content 1.0%): 210%; Cadmium (Cd) Adsorption amount ([1]; content 2.0% aqueous solution): 88 ppm; Cadmium (Cd) Adsorption rate ([1]; content 2.0%): 215%; Nickel (Ni) Adsorption rate ([2]; content 0.5%): 192%; Nickel (Ni) Adsorption amount ([2]; content 1.0% aqueous solution): 96 ppm; Nickel (Ni) Adsorption rate ([2]; content 1.0%): 196%; Nickel (Ni) Adsorption amount ([2]; content 2.0% aqueous solution): 103 ppm; Nickel (Ni) Adsorption rate ([2]; content 2.0%): 210%; Formaldehyde GC Area, 30 min [6]: 0.168 mAU*min; Formaldehyde GC Area, 180 min [6]: 0 mAU*min; Formaldehyde GC Area, Initial [6]: 0.305 mAU*min; Arsenic (As) Adsorption rate ([4]; content 0.5%): 192%; Arsenic (As) Adsorption amount ([4]; content 1.0% aqueous solution): 49 ppm; Arsenic (As) Adsorption rate ([4]; content 1.0%): 196%; Arsenic (As) Adsorption amount ([4]; content 2.0% aqueous solution): 53 ppm; Arsenic (As) Adsorption rate ([4]; content 2.0%): 212%
